In the assay the test system is mesophilic culture of Lactococcus. The assay can be described thus: Growth of Lactococcus with formate and purine supplementation: pH of inoculated milk over time. Type of assay: cell-based. The conditions noted are these: milk 1% fat, 32° C., inoculation 0.022%, IMP 10 ppm, NaF 5 ppm. As to the method:
In these experiments, the growth of Lactococcus in the presence of supplemented formate and purine was investigated. Equal amounts of milk (pasteurized milk w/1% fat) were added to four 1 liter Pyrex bottles. The bottles were placed in the water bath at 32° C.
All bottles were inoculated with a mesophilic culture of Lactococcus (0.022%). When the milk reached 32° C., three of the four bottles were supplemented with Na formate and/or disodium-5′-inosinate (IMP), as shown below.
The initial pH of the milk was recorded. The pH in the bottles was measured every hour for the first two hours and then every half hour until a pH of around 4.6 was reached.
The pH of each of the bottles, as a function of time, is shown below, and graphed in FIG. 1.

Consider `O=C[O-].[Na+]` [NaF, sodium formate], for which the pH by setting is: (time 0 hours (initial pH)) 6.54; (time 1 hour) 6.48; (time 2 hours) 6.29; (time 2.6 hours) 6.03; (time 3 hours) 5.79; (time 3.5 hours) 5.51. In addition, the pH (time 4 hours) amounted to 5.26, the pH (time 5.1 hours) was found to be 4.66 and the pH (time 5.6 hours) is reported as 4.54.

In the case of disodium-5′-inosinate [IMP], the pH (time 0 hours (initial pH)) is 6.54; the pH (time 1 hour) came to 6.48; the pH (time 2 hours) came out at 6.27; the pH (time 2.6 hours) was found to be 5.98; the pH (time 3 hours) stood at 5.73; the pH (time 3.5 hours) is listed as 5.42. In addition, the pH is 5.17 (time 4 hours), 4.6 (time 5.1 hours) and 4.5 (time 5.6 hours).

The record behind these values is patent US20110020494A1, “GROWTH MEDIUM FOR LACTIC ACID BACTERIA” (priority 2007, published 2011).
